Results reported in paper PMC5031696, “Synthesis, Biodistribution and In vitro Evaluation of Brain Permeable High Affinity Type 2 Cannabinoid Receptor Agonists [^11C]MA2 and [^18F]MA3” (Frontiers in Neuroscience, 2016).
Like-named read-outs stand apart in the source and are kept apart here.

Experiments:
[1] = target: T1, mCB2 (Mus musculus, UniProt P47936); assay: functional cAMP assay, mCB2; type: cell-based
T1 construct: host or cells: CHO-K1 beta-arrestin cells
Experimental: (§1) CHO-K1 beta-arrestin cells (DiscoveRx, Fremont, CA) expressing hCB2, mouse CB2 (mCB2), and human CB1 (hCB1) were cultured in F-12 Nutrient Mixture (HAM) supplemented with 10% fetal bovine serum (FBS), 300 μg/mL hygromycin and 800 μg/mL geneticin (G418). Cells were incubated in a humidified atmosphere at 37°C with 5% CO2.
(§2) cAMP was measured using cAMP-Nano-TRF detection kit (Roche Diagnostics, Penzberg, Germany). Cells were seeded 17–24 h prior to the experiment 3 × 10^4 cells per well in a black 96-well plate with flat clear bottom (Corning, Wiesbaden, Germany) in growth medium and incubated in 5% CO2 at 37°C in a humidified incubator. The growth medium was exchanged with Krebs Ringer bicarbonate buffer with 1 mmol/L 3-isobutyl-1-methylxanthine (IBMX), 0.1% fatty acid-free bovine serum albumin (BSA) and incubated at 30°C for 60 min. Agonist was added to a final assay volume of 100 μL and the mixture was incubated for 30 min at 30°C. The assay was stopped by the addition of 50 μL 3x lysis reagent and shaken for 2 h at room temperature. The time-resolved energy transfer was measured using an LF502 Nanoscan FLT (IOM, Berlin, Germany), equipped with a laser as excitation source. cAMP content was determined from the function of a standard curve spanning from 10 to 0.13 nmol/L cAMP.

[2] = target: T2, hCB1 (Homo sapiens, UniProt P21554); assay: functional cAMP assay, hCB1 versus hCB2; type: cell-based; settings: cAMP assays
T2 construct: host or cells: CHO-K1 beta-arrestin cells
T2 sequence (P21554 whole entry): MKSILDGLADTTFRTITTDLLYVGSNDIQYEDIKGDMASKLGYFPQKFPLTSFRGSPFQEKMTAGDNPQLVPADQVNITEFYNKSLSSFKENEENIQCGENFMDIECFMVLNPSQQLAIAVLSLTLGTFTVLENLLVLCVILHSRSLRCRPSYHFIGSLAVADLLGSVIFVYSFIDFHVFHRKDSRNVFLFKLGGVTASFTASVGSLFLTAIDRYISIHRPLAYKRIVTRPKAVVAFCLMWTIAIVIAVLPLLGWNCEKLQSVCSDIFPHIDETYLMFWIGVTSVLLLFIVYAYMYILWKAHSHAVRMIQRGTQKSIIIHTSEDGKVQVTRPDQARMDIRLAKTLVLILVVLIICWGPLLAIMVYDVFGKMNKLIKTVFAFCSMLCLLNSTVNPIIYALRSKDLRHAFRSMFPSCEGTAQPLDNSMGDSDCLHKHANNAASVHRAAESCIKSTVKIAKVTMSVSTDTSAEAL
Experimental: as §1, §2

[3] = target: T3, hCB2 (Homo sapiens, UniProt P34972); assay: radioligand binding assay with [^3H]CP55940, hCB2
T3 construct: host or cells: CHO-K1 beta-arrestin cells
T3 sequence (P34972 whole entry): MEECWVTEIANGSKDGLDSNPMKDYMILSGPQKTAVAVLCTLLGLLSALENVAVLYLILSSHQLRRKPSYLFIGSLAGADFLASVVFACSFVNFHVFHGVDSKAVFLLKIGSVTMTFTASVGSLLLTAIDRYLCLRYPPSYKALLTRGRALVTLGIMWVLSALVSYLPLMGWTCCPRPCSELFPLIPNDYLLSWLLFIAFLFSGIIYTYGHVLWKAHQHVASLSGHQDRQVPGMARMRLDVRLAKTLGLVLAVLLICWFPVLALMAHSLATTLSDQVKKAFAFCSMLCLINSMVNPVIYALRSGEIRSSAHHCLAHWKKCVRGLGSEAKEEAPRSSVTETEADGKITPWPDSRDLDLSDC
Experimental: as §1
(§3) Stably transfected cells were treated for 24 h with 5 mM butyrate in growth medium before harvesting, followed by homogenization in 15 mmol/L Hepes, 0.3 mmol/L EDTA, 1 mmol/L EGTA, 2 mmol/L MgCl2, complete EDTA-free protease inhibitor (Roche Applied Science, Rotkreuz, Switzerland), pH 7.4 using a glass potter and centrifugation at 47,800 g at 4°C for 30 min. The pellet was then rehomogenized twice in the same buffer and centrifuged (47,800 g, 4°C, 30 min). The final pellet was then resuspended in 75 mmol/L Tris, 0.3 mmol/L EDTA, 1 mmol/L EGTA, 12.5 mmol/L MgCl2, 250 mmol/L sucrose, pH 7.4 at a protein concentration of 1 to 3 mg/mL, aliquoted, frozen on dry ice and stored at −80°C. Saturation binding was performed with 0.05 to 2.6 nM [^3H]CP55940 (Perkin Elmer) and 1.0 μg of membrane protein. CP55940 (10 μM) was used to define non-specific binding. More than 95% of the total binding signal was specific. Assay buffer consisted of 50 mmol/L Tris-HCl, 5 mmol/L MgCl2, 2.5 mmol/L EGTA, and 0.1% fatty acid-free BSA, pH 7.4. Assays were initiated by addition of membranes in a final volume of 250 μL/well. Mixtures were incubated for 3 h at room temperature and then vacuum filtered and rinsed with wash buffer (50 mmol/L Tris-HCl, 5 mmol/L MgCl2, 2.5 mmol/L EGTA, and 0.5% fatty acid-free BSA, pH 7.4) on a Filtermate cell harvester through Packard GF/B filters presoaked in 0.3% polyethylenimine.
(§4) For competition binding, membrane preparations were incubated with 0.3 nM [^3H]CP55940 in the presence or absence of increasing concentrations of ligands for 60 min at 30°C in a final volume of 0.2 mL of 50 mmol/L Tris-HCl, 5 mmol/L MgCl2, 2.5 mmol/L EGTA, 0.1% fatty acid-free BSA, and 1% DMSO, pH 7.4, buffer, gently shaking. Non-specific binding was defined with 10 μM CP55940. All binding reactions were terminated by vacuum filtration onto 0.5% polyethylenimine presoaked GF/B filter plates (Packard) followed by seven brief washes with 2 mL of ice-cold binding buffer containing 0.5% fatty acid-free BSA. Plates were dried at 50°C for 1 h and liquid scintillation counting was used to determine bound radiolabel. IC50 values and Hill slopes were determined by a four parameter logistic model using ActivityBase (ID Business Solution, Guilford, UK). pKi values were determined by the generalized Cheng-Prusoff equation (Yung-Chi and Prusoff, [1973]).

[4] = target: T1, mCB2; assay: radioligand binding assay with [^3H]CP55940, mCB2
Experimental: as §1, §3, §4

[5] = target: T3, hCB2; assay: functional cAMP assay, hCB2; type: cell-based; settings: for functional behaviour in cAMP assay: hCB2
Experimental: as §1, §2

[6] = target: T2, hCB1; assay: radioligand binding assay with [^3H]CP55940, hCB1; settings: for Ki ratio hCB1/hCB2: selectivity
Experimental: as §1, §3, §4

[7] = tested on: CB2; set-up: method as in Evens et al., 2011; settings: ref Evens et al., 2011; cited from earlier work

T1 sequence (P47936 whole entry): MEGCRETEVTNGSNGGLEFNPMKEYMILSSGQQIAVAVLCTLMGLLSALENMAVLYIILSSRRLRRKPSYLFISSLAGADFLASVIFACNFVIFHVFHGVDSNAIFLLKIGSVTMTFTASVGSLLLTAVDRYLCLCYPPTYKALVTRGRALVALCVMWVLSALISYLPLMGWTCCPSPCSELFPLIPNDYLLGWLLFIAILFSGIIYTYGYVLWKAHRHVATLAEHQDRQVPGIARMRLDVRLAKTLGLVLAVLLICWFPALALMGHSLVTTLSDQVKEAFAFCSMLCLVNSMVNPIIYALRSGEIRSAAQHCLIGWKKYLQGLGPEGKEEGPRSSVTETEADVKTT

SMILES | EC50 [1] [nM] | mCB2 cAMP % eff (efficacy) ([1]; CHO-K1 cells expressing mCB2) [%] | EC50 ratio hCB1/hCB2 [2] | Ki [3] [nM] | Ki [4] [nM] | EC50 [5] [nM] | hCB2 cAMP % eff (efficacy) ([5]; CHO-K1 cells expressing hCB2) [%] | functional behaviour in cAMP assay [5] | Ki [6] [nM] | Ki ratio hCB1/hCB2 [6] | EC50 ([1]; CHO-K1 cells expressing mCB2, read-out: mCB2 cAMP EC50) [nM] | Ki ([3]; competition with [^3H]CP55940, read-out: hCB2 Ki) [nM] | Ki ([4]; competition with [^3H]CP55940, read-out: mCB2 Ki) [nM] | EC50 ([5]; CHO-K1 cells expressing hCB2, read-out: hCB2 cAMP EC50) [nM] | Ki ([6]; competition with [^3H]CP55940, read-out: hCB1 Ki) [nM] | binding affinity for CB2 [7] [nM]
COc1ccc2ncc(NCCCc3nc(-c4ccc(F)cc4Cl)no3)cc2c1 [MA2, N-(3-(3-(2-chloro-4-fluorophenyl)-1,2,4-oxadiazol-5-yl)propyl)-6-methoxyquinolin-3-amine] | 2 | 100 | 430 | 87 | 241 | 3 | 101 | agonists | 1610 | 19 |  |  |  |  |  | 
Fc1ccc(-c2noc(CCCNc3cnc4ccc(OC(F)(F)F)cc4c3)n2)c(Cl)c1 [Compound 12, reference compound] |  | 100 | 1300 |  |  |  | 100 | agonists |  | 202 | 0.18 | 2.8 | 4.6 | 0.15 | 568 | 
Cc1c(CCN2CCOCC2)c2cc(OCC[18F])ccc2n1C(=O)c1cccc(Cl)c1Cl [[^18F]FE-GW405833] |  |  |  |  |  |  |  |  |  |  |  |  |  |  |  | 27
